Test results reported in EP0003269A1, “Pentacyclic derivatives, process for their preparation and pharmaceutical compositions containing them” (SCIENCE UNION ET Cie SOCIETE FRANCAISE DE RECHERCHE MEDICALE, priority 1977, dated 1979).

Experiment: solubility in solvents
Assay type: physicochemical

For C[C@@H]1OC=C(C(=O)NN)[C@H]2C[C@H]3c4[nH]c5ccccc5c4CCN3C[C@H]12 [hydrazide de l'acide Raubasinique, Hydrazide de l'acide Raubasinique], the solubilité (in a mixture pyridine-eau) was “soluble”, the solubilité (in méthanol) was “très soluble” and the solubilité (in n- butanol) was “très soluble”. The solubilité (in the other solvents) was “peu soluble”.
For “hydrazide de l'acide 10-methoxy raubasinique”, the solubilité (dichlorhydrate, in organic solvents) was “très soluble”.
